Results: ChEMBL document CHEMBL1201862, “PubChem BioAssay data set” (2004)
Active and inactive are the calls of the source.

Tests used:
[1] = molecular target: Luciferin 4-monooxygenase (Photinus pyralis, UniProt P08659); test: firefly luciferase enzyme inhibitors, dose response, biochemical, luminescence (AID 1891)
[2] = Luminescence Cell-Based Dose Response HTS to Identify Inhibitors of 5'UTR Stem-Loop Driven Prion Protein mRNA Translation in H4 Neuroglioblastoma Cells. [Related pubchem assays: 1827 (Project Summary), 1813 (Primary HTS)]; format: functional
[3] = HEK293 cell cytotoxicity, dose response, cytotoxicity control, plate reader, cherry-picked samples (AID 743446); format: functional, cell-based
[4] = molecular target: T1, Type-1 angiotensin II receptor (Homo sapiens, UniProt P30556); test: AT1 receptor antagonists, dose response, selectivity assay for APJ receptor antagonist project, cell-based, uHTS hits (AID 463214); format: functional;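 further: antagonist potency against angiotensin II stimulated AT1 response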
T1 sequence (P30556 whole entry): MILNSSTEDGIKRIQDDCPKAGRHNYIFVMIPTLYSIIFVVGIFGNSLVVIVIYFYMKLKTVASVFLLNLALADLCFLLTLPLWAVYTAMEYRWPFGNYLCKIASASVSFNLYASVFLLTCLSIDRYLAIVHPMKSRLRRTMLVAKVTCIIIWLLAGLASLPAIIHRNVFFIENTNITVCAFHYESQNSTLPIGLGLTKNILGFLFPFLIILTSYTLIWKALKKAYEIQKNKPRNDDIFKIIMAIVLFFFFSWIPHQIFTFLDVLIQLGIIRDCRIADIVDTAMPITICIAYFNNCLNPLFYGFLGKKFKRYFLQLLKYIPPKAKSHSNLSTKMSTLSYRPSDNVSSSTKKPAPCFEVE

[5] = A549 cell cytotoxicity, dose response, cytotoxicity control, plate reader, cherry-pick, antagonist series (AID 743412); format: functional, cell-based
[6] = molecular target: T2, Microphthalmia-associated transcription factor (Homo sapiens, UniProt O75030); test: TRPM1 promoter luciferase signal decrease, dose response, MITF inhibitor project, cell-based, SK-MEL-5, cherry-picked, set 3 (AID 493073); format: functional
T2 sequence (O75030 whole entry): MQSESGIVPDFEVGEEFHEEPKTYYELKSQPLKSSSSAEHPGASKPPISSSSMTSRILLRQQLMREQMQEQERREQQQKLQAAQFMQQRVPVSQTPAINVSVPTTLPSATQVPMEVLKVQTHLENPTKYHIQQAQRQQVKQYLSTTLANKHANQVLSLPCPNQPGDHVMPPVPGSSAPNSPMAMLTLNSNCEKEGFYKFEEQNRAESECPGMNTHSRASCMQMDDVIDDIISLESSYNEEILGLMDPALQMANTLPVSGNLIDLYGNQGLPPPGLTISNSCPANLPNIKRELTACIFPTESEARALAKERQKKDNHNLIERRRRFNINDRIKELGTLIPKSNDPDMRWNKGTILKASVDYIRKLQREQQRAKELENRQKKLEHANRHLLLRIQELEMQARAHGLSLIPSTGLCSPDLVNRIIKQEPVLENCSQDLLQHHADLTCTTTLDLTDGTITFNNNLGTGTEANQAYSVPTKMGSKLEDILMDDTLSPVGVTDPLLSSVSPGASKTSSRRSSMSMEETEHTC

[7] = MC4R antagonists, dose response, counter-screen for LGR2 antagonist project, cell-based, plate reader, cherry pick (AID 743444); format: functional;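 further: transfected HEK 293 cells stimulated with alpha-MSH peptide; potency of inhibitors of the alpha-MSH evoked signal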
[8] = inhibitors of SNCA 5'UTR-driven reporter translation, confirmation, H4 neuroglioma cells, luminescence (AID 1988); format: functional, cell-based
A-375 = test: A375 melanoma cell viability reduction, dose response, counter-screen for MITF modulator project, cherry-pick samples, set 2 (AID 540335); format: functional, cell-based; conditions: Homo sapiens
[9] = LGR2 antagonists, dose response, cell-based, HEK293, CRE-luciferase reporter, cherry pick, set 2 (AID 743343); format: functional;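 further: transfected cells were stimulated with diluted bursicon conditioned medium after compound addition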
[10] = Luminescence Cell-Based Dose Confirmation HTS to Identify Inhibitors of Platelet Dense Granule Release. [Related pubchem assays: 1663 (Primary HTS), 1678 (Summary of Project)]; format: functional
[11] = HepG2 cell cytotoxicity, dose response, cytotoxicity control, plate reader, cherry-pick, antagonist series (AID 743416); format: functional, cell-based
Beta-galactosidase = Beta-galactosidase (Escherichia coli, UniProt Q8VNN2); test: PubChem AID 485352; format: functional
Beta-galactosidase, sequence (Q8VNN2 whole entry): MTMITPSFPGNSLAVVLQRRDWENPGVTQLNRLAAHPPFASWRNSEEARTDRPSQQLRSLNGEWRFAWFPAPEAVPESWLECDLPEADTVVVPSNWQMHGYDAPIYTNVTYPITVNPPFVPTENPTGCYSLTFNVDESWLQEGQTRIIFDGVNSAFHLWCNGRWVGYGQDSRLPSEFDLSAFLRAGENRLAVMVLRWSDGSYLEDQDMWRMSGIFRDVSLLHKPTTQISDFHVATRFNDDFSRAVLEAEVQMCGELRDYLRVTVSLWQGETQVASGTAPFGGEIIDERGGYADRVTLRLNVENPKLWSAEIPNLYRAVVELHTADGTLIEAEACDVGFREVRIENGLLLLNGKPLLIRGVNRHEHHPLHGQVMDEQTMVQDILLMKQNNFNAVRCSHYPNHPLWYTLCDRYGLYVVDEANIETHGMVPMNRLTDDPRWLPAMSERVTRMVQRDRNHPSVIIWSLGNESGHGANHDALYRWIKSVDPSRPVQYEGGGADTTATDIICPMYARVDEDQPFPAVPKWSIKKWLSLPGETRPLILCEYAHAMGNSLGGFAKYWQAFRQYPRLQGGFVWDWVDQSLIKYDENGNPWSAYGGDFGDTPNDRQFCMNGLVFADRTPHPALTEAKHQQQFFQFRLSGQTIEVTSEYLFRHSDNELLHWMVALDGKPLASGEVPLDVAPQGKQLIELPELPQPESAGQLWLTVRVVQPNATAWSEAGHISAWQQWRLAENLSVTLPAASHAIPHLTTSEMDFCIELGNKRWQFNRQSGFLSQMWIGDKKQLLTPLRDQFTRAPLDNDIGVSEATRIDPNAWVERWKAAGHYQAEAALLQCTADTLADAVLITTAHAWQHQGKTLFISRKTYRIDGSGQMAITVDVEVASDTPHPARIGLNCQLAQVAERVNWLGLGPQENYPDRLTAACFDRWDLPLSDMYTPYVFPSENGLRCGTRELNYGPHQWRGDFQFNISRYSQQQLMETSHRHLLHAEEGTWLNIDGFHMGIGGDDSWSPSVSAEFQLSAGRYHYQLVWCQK

Escherichia coli = test: microbe, parasite or virus in culture
MDCK [12] = test: antiviral activity against H1N1 influenza, dose response, cell-based, strain KY180 (AID 540254); format: functional; conditions: Canis lupus familiaris
MDCK [13] = test: antiviral activity against H1N1 influenza, dose response, cell-based, strain KY136 (AID 540257); format: functional; conditions: Canis lupus familiaris
Nonstructural protein 1 = Nonstructural protein 1 (Influenza A virus, UniProt Q194T2); format: functional, Influenza A virus (A/California/07/2009(H1N1))
Nonstructural protein 1, sequence (Q194T2 whole entry): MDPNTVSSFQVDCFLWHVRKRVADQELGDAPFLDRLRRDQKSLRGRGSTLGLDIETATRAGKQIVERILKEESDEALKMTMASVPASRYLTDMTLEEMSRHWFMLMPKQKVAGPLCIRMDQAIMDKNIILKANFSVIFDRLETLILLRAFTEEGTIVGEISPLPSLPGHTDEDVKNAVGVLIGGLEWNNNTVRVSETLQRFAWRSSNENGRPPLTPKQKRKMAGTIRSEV

[14] = molecular target: Glycogen synthase kinase-3 beta (Homo sapiens, UniProt P49841); test: Inhibition of Human GSK-3 beta Activity Measured in Biochemical System Using Microfluidics - 2063-05_Inhibitor_Dose_DryPowder_Activity. [Related pubchem assays (depositor defined):AID2709]
Glycogen synthase kinase-3 beta, sequence (P49841 whole entry): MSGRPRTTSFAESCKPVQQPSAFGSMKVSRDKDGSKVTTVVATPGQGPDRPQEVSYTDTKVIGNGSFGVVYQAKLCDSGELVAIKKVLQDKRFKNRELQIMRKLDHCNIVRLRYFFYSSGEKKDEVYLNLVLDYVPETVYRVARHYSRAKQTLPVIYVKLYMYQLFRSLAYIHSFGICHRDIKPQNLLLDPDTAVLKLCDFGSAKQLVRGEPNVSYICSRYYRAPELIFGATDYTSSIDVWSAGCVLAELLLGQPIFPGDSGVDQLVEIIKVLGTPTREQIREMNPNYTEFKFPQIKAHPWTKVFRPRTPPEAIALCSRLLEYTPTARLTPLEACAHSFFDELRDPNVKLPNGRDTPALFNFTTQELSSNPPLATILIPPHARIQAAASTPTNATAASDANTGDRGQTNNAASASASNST

[15] = molecular target: Glycogen synthase kinase-3 alpha (Homo sapiens, UniProt P49840); test: Inhibition of Human GSK-3 alpha Activity Measured in Biochemical System Using Microfluidics - 2063-06_Inhibitor_Dose_DryPowder_Activity. [Related pubchem assays (depositor defined):AID2709]
Glycogen synthase kinase-3 alpha, sequence (P49840 whole entry, the tested form may be a part): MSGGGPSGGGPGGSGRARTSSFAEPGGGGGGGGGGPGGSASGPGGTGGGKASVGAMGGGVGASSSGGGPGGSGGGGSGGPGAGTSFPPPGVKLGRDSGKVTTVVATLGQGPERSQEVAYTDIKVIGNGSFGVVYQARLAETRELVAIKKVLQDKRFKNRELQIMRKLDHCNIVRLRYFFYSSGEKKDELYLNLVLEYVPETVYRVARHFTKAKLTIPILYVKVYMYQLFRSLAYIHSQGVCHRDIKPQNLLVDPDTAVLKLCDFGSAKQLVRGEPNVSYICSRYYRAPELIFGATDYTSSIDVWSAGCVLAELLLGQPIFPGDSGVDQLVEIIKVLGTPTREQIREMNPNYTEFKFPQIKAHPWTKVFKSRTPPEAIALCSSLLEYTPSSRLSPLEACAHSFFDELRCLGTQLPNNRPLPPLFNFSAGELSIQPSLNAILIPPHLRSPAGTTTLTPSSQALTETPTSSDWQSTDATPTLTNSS

[16] = molecular target: Nucleotide-binding oligomerization domain-containing protein 2 (Homo sapiens, UniProt Q9HC29); test: NOD2 signaling inhibitors, cell-based, luminescence, uHTS, HEK293 (AID 1566); format: functional
Nucleotide-binding oligomerization domain-containing protein 2, sequence (Q9HC29 whole entry, the tested form may be a part): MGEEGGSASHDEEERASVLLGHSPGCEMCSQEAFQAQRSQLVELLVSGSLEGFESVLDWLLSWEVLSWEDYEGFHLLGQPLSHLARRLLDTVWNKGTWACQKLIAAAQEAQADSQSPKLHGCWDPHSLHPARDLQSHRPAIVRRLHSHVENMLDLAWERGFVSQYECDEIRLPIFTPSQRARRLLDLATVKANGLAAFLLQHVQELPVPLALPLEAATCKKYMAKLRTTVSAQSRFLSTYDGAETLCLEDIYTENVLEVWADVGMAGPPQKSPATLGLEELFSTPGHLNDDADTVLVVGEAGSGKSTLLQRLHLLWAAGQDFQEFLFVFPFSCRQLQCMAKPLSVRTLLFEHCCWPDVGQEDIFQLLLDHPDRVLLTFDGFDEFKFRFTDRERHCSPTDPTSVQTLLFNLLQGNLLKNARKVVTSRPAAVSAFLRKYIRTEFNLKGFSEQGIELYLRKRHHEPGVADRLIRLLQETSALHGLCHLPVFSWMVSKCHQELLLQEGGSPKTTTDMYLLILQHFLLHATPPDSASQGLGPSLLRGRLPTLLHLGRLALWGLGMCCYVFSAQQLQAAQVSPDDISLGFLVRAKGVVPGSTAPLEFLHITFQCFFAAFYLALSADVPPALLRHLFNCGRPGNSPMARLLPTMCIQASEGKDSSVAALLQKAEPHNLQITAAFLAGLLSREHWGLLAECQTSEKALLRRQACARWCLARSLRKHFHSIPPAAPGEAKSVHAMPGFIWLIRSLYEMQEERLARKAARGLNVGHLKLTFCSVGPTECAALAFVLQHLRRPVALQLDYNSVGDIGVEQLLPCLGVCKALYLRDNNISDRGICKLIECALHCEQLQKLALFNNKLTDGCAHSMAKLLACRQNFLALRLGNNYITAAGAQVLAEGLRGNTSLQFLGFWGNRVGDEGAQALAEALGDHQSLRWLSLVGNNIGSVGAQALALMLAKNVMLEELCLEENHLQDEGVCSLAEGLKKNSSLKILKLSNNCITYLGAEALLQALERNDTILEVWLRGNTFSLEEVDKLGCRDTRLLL

Jurkat [17] = test: antigen receptor-induced NF-kB inhibitors, dose response, Jurkat, luciferase reporter, luminescence, B- and T-cell (AID 489004); format: functional, cell-based; conditions: Homo sapiens;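 further: NF-kB luciferase reporter Jurkat cells stimulated with PMA plus ionomycin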
[18] = molecular target: T3, COUP transcription factor 2 (Homo sapiens, UniProt P24468); test: Luminescence-based cell-based high throughput dose response assay to identify inhibitors of COUP-TFII (NR2F2).; format: functional;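 further: HEK293 cells transiently cotransfected with COUP-TFII expression vector and reporter; luciferase reporter luminescence driven by COUP-TFII from the pX2-168 reporter plasmid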
T3 sequence (P24468 whole entry): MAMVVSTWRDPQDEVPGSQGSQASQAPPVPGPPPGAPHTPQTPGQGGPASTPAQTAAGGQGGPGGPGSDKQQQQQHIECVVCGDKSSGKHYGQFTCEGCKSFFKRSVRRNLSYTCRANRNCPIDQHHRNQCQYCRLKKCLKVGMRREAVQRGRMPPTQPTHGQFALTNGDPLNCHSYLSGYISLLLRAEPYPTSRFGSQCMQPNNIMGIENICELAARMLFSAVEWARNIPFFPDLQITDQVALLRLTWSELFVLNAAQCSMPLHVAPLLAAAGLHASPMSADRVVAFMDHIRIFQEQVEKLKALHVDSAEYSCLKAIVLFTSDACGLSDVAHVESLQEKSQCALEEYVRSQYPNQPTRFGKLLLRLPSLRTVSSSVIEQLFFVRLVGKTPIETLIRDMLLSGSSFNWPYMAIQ

HEK293 [19] = test: NOD1 signaling inhibitors, primary screen, cell-based, luminescence, uHTS (AID 1578); format: functional; conditions: Homo sapiens
HEK293 [20] = test: cells; format: functional, cell-based; conditions: Homo sapiens
[21] = cytotoxicity in HEK-293T NF-kB-Luc cells, dose response, cytotoxicity control for B/T-cell NF-kB inhibitor project, cell-based, uHTS hits (AID 489019); format: functional;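 further: IC50 reflects cytotoxicity as loss of cell viability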
HEK293 [22] = test: cells; format: functional, cell-based; conditions: Homo sapiens; remark: listed apart in the source
INS1 = test: beta cell apoptosis inhibitors, cytokine rescue, dose response, luminescence, retest (AID 449756); format: functional, cell-based; conditions: Rattus norvegicus;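 further: cell death triggered by IL-1 beta plus TNF-alpha plus IFN-gamma mixture; protective hits raise ATP signal compared with cytokine alone wells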
HEK293 [23] = test: cells; format: functional, cell-based; conditions: Homo sapiens; remark: listed apart in the source
HEK293 [24] = test: NOD2 signaling inhibitors in MDP-stimulated cells, cell-based, uHTS, luminescence (AID 2001); format: functional; conditions: Homo sapiens
HEK293 [25] = test: cytotoxicity in HEK293T NF-kB-Luc cells, SAR follow-up, cytotoxicity control for NF-kB activator project, cell-based, resazurin fluorescence (AID 493251); format: functional; conditions: Homo sapiens
Jurkat [26] = test: SAR Analysis of small molecule inhibitors of T-cell specific antigen receptor-induced NF-kB activation in a Jurkat cell line using a luminescence assay - Set 2. [Related pubchem assays (depositor defined):AID435003, AID435012, AID465]; format: functional, cell-based; conditions: Homo sapiens
HEK293 [27] = test: SAR Analysis of small molecule inhibitors of T-cell specific antigen receptor-induced NF-kB activation in a HEK-293T cell line using a luminescence assay - Set 2. [Related pubchem assays (depositor defined):AID435003, AID435012, AID489026]; format: functional, cell-based; conditions: Homo sapiens
Candida albicans [28] = test: growth inhibition of azole-resistant C. albicans, dose response, CaCi-8 strain, Alamar Blue, dry powder, set 2 (AID 488909); format: functional, organism-based
Candida albicans [29] = test: fluconazole resistance reversal in C. albicans, dose response, CaCi-2 strain, Alamar Blue, dry powder, set 4 (AID 488943); format: functional, organism-based
Candida albicans [30] = test: C. albicans growth inhibition with fluconazole, dose response, antifungal resistance reversal project, CaCi-2 strain, Alamar Blue, dry powder, set 2 (AID 488930); format: functional, organism-based
Candida albicans [31] = test: growth inhibition of resistant C. albicans, dose response, CaCi-8 strain, fluconazole, dry powder, set 4 (AID 488950); format: functional, organism-based

Luciferin 4-monooxygenase, sequence (P08659 whole entry): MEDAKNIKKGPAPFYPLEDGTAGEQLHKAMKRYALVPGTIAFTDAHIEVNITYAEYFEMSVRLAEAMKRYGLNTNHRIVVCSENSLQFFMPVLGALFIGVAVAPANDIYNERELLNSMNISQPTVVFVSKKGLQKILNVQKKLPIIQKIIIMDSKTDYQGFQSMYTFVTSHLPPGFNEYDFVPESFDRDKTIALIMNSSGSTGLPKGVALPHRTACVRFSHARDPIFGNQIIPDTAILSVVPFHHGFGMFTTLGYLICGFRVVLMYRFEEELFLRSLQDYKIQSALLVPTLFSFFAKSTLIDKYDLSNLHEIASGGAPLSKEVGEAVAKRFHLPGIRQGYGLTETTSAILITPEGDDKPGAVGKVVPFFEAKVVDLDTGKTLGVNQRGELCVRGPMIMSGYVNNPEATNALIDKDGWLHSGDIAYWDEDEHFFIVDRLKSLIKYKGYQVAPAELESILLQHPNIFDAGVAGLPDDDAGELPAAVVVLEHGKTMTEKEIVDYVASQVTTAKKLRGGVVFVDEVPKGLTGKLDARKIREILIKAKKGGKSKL

## COc1ccc(-c2cc3c(nn2)-c2ccccc2C3=O)cc1
[1]
  EC50: 0.384 µM (active)
[2]
  EC50: > 60 µM (not active)
[3]
  AC50: 23.4 µM (active)
[4]
  IC50: 6.98 µM (active)
[5]
  AC50: 29.2 µM (active)
[6]
  AC50: 4.22 µM (active)
[7]
  AC50: 5.11 µM (active)
[8]
  EC50: 0.375 µM (inconclusive)
A-375
  AC50: 20.2 µM (active)
[9]
  AC50: 4.41 µM (active)
[10]
  EC50: 6.87 µM (active)
[11]
  AC50: 15.8 µM (active)
Beta-galactosidase
  EC50: > 40 µM (inactive)

## CC(C)c1cc(C(=O)NCc2ccco2)no1
Escherichia coli
  AC50: 46.2 µM (active)

## CN(C)c1cccc2c(C=C(C#N)C#N)ccc(N(C)C)c12
MDCK [12]
  IC50: 15.9 µM (active)
MDCK [13]
  IC50: > 100 µM (active)
Nonstructural protein 1
  IC50: 22.6 µM (active)

## Nc1nc(NCCCN2CCOCC2)nc(Nc2cccc(F)c2)c1[N+](=O)[O-]
[14]
  AC50: 0.208 µM (active)
[15]
  AC50: 0.698 µM (active)

## O=S(=O)(NCC1CCCO1)c1ccc(-c2ccc(S(=O)(=O)NCC3CCCO3)cc2)cc1 (stereo unspecified)
[16]
  EC50: > 20 µM (inactive)
Jurkat [17]
  IC50: > 80 µM (inactive)
[18]
  IC50: 2.02 µM (active)
HEK293 [19]
  EC50: 1.65 µM (active)
HEK293 [20]
  IC50: 19.9 µM (active)
[21]
  IC50: > 80 µM (inactive)
HEK293 [22]
  IC50: > 20 µM (inactive)
INS1
  AC50: 3.25 µM (active)
HEK293 [23]
  IC50: 5.37 µM (active)
HEK293 [24]
  IC50: 9.07 µM (active)

## COc1ccc(C(=O)Nc2ccc(NC(=O)c3cc4ccccc4o3)cc2)cc1Cl
HEK293 [25]
  IC50: > 80 µM (inactive)
Jurkat [26]
  IC50: > 79 µM (inactive)
HEK293 [27]
  IC50: > 80 µM (inactive)

## O=C(c1ccc(Cl)cc1)C1CCN(c2ccnc3cc(Cl)ccc23)CC1
Candida albicans [28]
  AC50: 3.81 µM (active)
Candida albicans [29]
  AC50: 0.342 µM (active)
Candida albicans [30]
  AC50: 0.663 µM (active)
Candida albicans [31]
  AC50: 0.579 µM (active)
